Tests used:
Calu-3 [1] = assay: relative viability EC50 (midpoint between 100% and the lowest measured viability); higher = less toxic; conditions: 72 h
HepG2 [2] = assay: as above; conditions: 72 h
Caco-2 [3] = assay: as above; conditions: 72 h
Vero E6 [4] = assay: as above; conditions: 72 h
[5] = tested on: A549-ACE2 infected with SARS-CoV-2; assay: morphology score (similarity to uninfected cells); higher = more like uninfected cells; conditions: 24 h
A549-ACE2 [6] = assay: phospholipidosis EC50; higher = less potent phospholipidosis inducer
[7] = tested on: A549-ACE2 infected with SARS-CoV-2; assay: cell count relative to DMSO; higher = less toxic; conditions: 24 h
[8] = tested on: A549-ACE2 infected with SARS-CoV-2; assay: SARS-CoV-2 infection rate relative to DMSO; higher = more infection; conditions: 24 h
Calu-3 [9] = assay: drug sensitivity score (DSS) for viability; higher = more toxic; extreme values may be limits of the assay; conditions: 72 h
HepG2 [10] = assay: as above; conditions: 72 h
Caco-2 [11] = assay: as above; conditions: 72 h
U2OS [12] = assay: as above; conditions: 72 h
Vero E6 [13] = assay: as above; conditions: 72 h
A549-ACE2 [14] = assay: drug-induced phospholipidosis relative to tamoxifen; higher = more phospholipidosis
Calu-3 [15] = assay: cell viability relative to DMSO; higher = less toxic; conditions: 72 h
HepG2 [16] = assay: as above; conditions: 72 h
Caco-2 [17] = assay: as above; conditions: 72 h
U2OS [18] = assay: as above; conditions: 72 h
Vero E6 [19] = assay: as above; conditions: 72 h
U2OS [20] = assay: relative viability EC50 (midpoint between 100% and the lowest measured viability); higher = less toxic; conditions: 72 h

CNCc1ccc(-c2cc(-c3nc(-c4ccc(S(=O)(=O)C(C)C)cc4)cnc3N)on2)cc1 [VE-822]
Conditions	drug sensitivity score	relative viability EC50 [µM]
Caco-2 [3]	–	2.04
Caco-2 [11]	3.9	–
Calu-3 [1]	–	> 10
Calu-3 [9]	0	–
HepG2 [2]	–	0.779
HepG2 [10]	10.1	–
U2OS [12]	2.6	–
Vero E6 [4]	–	1.97
Vero E6 [13]	7.9	–

Conditions	SARS-CoV-2 infection rate [%]	cell count [%]	cell viability [%]	morphology score	phospholipidosis EC50 [µM]
A549-ACE2 [6], 24 h	–	–	–	–	1.16
A549-ACE2 [6], 48 h	–	–	–	–	3.02
A549-ACE2 [6], 72 h	–	–	–	–	2.97
Caco-2 [17], 1 nM	–	–	104	–	–
Caco-2 [17], 10 nM	–	–	103	–	–
Caco-2 [17], 100 nM	–	–	103	–	–
Caco-2 [17], 1000 nM	–	–	92.8	–	–
Caco-2 [17], 10000 nM	–	–	49.3	–	–
Calu-3 [15], 1 nM	–	–	96.5	–	–
Calu-3 [15], 10 nM	–	–	93.2	–	–
Calu-3 [15], 100 nM	–	–	93.4	–	–
Calu-3 [15], 1000 nM	–	–	106	–	–
Calu-3 [15], 10000 nM	–	–	90	–	–
HepG2 [16], 1 nM	–	–	111	–	–
HepG2 [16], 10 nM	–	–	99	–	–
HepG2 [16], 100 nM	–	–	94	–	–
HepG2 [16], 1000 nM	–	–	53.3	–	–
HepG2 [16], 10000 nM	–	–	19.1	–	–
U2OS [18], 1 nM	–	–	101	–	–
U2OS [18], 10 nM	–	–	104	–	–
U2OS [18], 100 nM	–	–	96	–	–
U2OS [18], 1000 nM	–	–	89.9	–	–
U2OS [18], 10000 nM	–	–	67.4	–	–
Vero E6 [19], 1 nM	–	–	94.8	–	–
Vero E6 [19], 10 nM	–	–	95.7	–	–
Vero E6 [19], 100 nM	–	–	97.2	–	–
Vero E6 [19], 1000 nM	–	–	85.1	–	–
Vero E6 [19], 10000 nM	–	–	2.1	–	–
[5], 0.1 µM	–	–	–	0.32	–
[5], 0.3 µM	–	–	–	0.31	–
[5], 1 µM	–	–	–	0.57	–
[5], 3 µM	–	–	–	0.55	–
[7], 0.1 µM	–	107	–	–	–
[7], 0.3 µM	–	110	–	–	–
[7], 1 µM	–	128	–	–	–
[7], 3 µM	–	118	–	–	–
[8], 0.1 µM	89	–	–	–	–
[8], 0.3 µM	89	–	–	–	–
[8], 1 µM	51	–	–	–	–
[8], 3 µM	25	–	–	–	–

drug-induced phospholipidosis [%], A549-ACE2 [14]
Conditions	0.3 µM	0.833333 µM	3.33333 µM	6.66667 µM	10 µM	30 µM
24 h	13.9	27.3	86.2	113	119	42.3
48 h	14.2	28	89.1	124	148	62.7
72 h	16.7	20.1	102	143	163	63.3

O=C(Nc1ncc(SCCN2CCCC2)s1)[C@]1(c2ccc(S(=O)(=O)C3CC3)cc2)C[C@H]1C1CCCCC1
Conditions	drug sensitivity score	relative viability EC50 [µM]
Caco-2 [11]	1.3	–
Calu-3 [1]	–	3.34
Calu-3 [9]	4.6	–
HepG2 [2]	–	1.84
HepG2 [10]	4.6	–
U2OS [12]	0.8	–
Vero E6 [4]	–	> 10
Vero E6 [13]	0	–

Conditions	SARS-CoV-2 infection rate [%]	cell count [%]	cell viability [%]	morphology score	phospholipidosis EC50 [µM]
A549-ACE2 [6], 24 h	–	–	–	–	6.5
A549-ACE2 [6], 48 h	–	–	–	–	5.12
A549-ACE2 [6], 72 h	–	–	–	–	5.4
Caco-2 [17], 1 nM	–	–	101	–	–
Caco-2 [17], 10 nM	–	–	98.9	–	–
Caco-2 [17], 100 nM	–	–	98	–	–
Caco-2 [17], 1000 nM	–	–	102	–	–
Caco-2 [17], 10000 nM	–	–	69	–	–
Calu-3 [15], 1 nM	–	–	110	–	–
Calu-3 [15], 10 nM	–	–	93.8	–	–
Calu-3 [15], 100 nM	–	–	96.4	–	–
Calu-3 [15], 1000 nM	–	–	103	–	–
Calu-3 [15], 10000 nM	–	–	14	–	–
HepG2 [16], 1 nM	–	–	104	–	–
HepG2 [16], 10 nM	–	–	99.2	–	–
HepG2 [16], 100 nM	–	–	98.6	–	–
HepG2 [16], 1000 nM	–	–	90.2	–	–
HepG2 [16], 10000 nM	–	–	44.8	–	–
U2OS [18], 1 nM	–	–	99.4	–	–
U2OS [18], 10 nM	–	–	105	–	–
U2OS [18], 100 nM	–	–	104	–	–
U2OS [18], 1000 nM	–	–	102	–	–
U2OS [18], 10000 nM	–	–	74.9	–	–
Vero E6 [19], 1 nM	–	–	96.3	–	–
Vero E6 [19], 10 nM	–	–	94.6	–	–
Vero E6 [19], 100 nM	–	–	97.2	–	–
Vero E6 [19], 1000 nM	–	–	90.5	–	–
Vero E6 [19], 10000 nM	–	–	95.4	–	–
[5], 0.3 µM	–	–	–	0.2	–
[5], 3 µM	–	–	–	0.84	–
[5], 10 µM	–	–	–	0.6	–
[5], 30 µM	–	–	–	-0.07	–
[7], 0.3 µM	–	101	–	–	–
[7], 3 µM	–	115	–	–	–
[7], 10 µM	–	118	–	–	–
[7], 30 µM	–	56	–	–	–
[8], 0.3 µM	94	–	–	–	–
[8], 3 µM	27	–	–	–	–
[8], 10 µM	8	–	–	–	–
[8], 30 µM	44	–	–	–	–

drug-induced phospholipidosis [%], A549-ACE2 [14]
Conditions	0.3 µM	0.833333 µM	3.33333 µM	6.66667 µM	10 µM	30 µM
24 h	14.6	32.7	73.1	104	117	197
48 h	10.1	21.2	80.9	105	132	–
72 h	11.7	19.3	75.5	114	138	–

CNc1cc(OC)c(C(=O)NC2CCN(Cc3ccccc3)C2C)cc1Cl (stereo unspecified) [nemonapride]
Conditions	drug sensitivity score	relative viability EC50 [µM]
Caco-2 [3]	–	> 10
Caco-2 [11]	0	–
Calu-3 [1]	–	> 10
Calu-3 [9]	0	–
HepG2 [2]	–	> 10
HepG2 [10]	0.6	–
U2OS [12]	0	–
U2OS [20]	–	> 10
Vero E6 [4]	–	> 10
Vero E6 [13]	0	–

Conditions	SARS-CoV-2 infection rate, [8] [%]	cell count, [7] [%]	cell viability, Caco-2 [17] [%]	cell viability, Calu-3 [15] [%]	cell viability, HepG2 [16] [%]	cell viability, U2OS [18] [%]	cell viability, Vero E6 [19] [%]	morphology score, [5]
1 nM	–	–	101	92.2	96	90.7	99.1	–
10 nM	–	–	104	98	96.1	99.4	91.9	–
100 nM	–	–	104	92.6	98.1	94.5	99.5	–
0.3 µM	100	99	–	–	–	–	–	-0.15
1000 nM	–	–	108	105	94.2	98.6	94.7	–
3 µM	61	111	–	–	–	–	–	0.69
10 µM	49	123	–	–	–	–	–	0.82
10000 nM	–	–	90.5	87.5	83.4	93.8	100	–
30 µM	16	122	–	–	–	–	–	0.86

drug-induced phospholipidosis [%], A549-ACE2 [14]
Conditions	0.3 µM	0.833333 µM	3.33333 µM	6.66667 µM	10 µM	30 µM
24 h	1.28	6.8	10.9	12.3	18.5	51
48 h	3.09	4.55	12.9	15.7	16.3	43.9
72 h	5.92	4.8	14.4	19.3	24.2	53.2
